Test [1] deals with HeLa cells (tumor spheroids). Nature of the test: Lectin-Cy3 binding to tumor spheroids pre-treated with rhamnose-pHLIP constructs (fluorescence confocal imaging). Format: cell-based. The note with it: HeLa spheroids pre-treated with 0-2 μM construct at pH 6.3, 37° C., 30 min, washed; then Lectin-Cy3 at pH 7.4; compared with lectin-Cy3 alone. As to the method: Induction of an immunological response requires a proper positioning of carbohydrate epitope at the surface of tumor cells. This was verified on 3-D tumor cancer cell culture (tumor spheroids). Briefly, a 2% agarose solution was made by dissolving in pH 7.4 PBS. 150 μL of the solution is pipetted into each well of a 48-well flat bottom tissue culture plate. After the agarose gel sufficiently settled (˜1 h), 150 μL of DMEM supplemented with 10% FBS and ciprofloxacin.HCl was added to each well. The covered plate was left in a humidified atmosphere at 37° C. and 5% CO2 in cell culture incubator for 24 h. On the next day, the excess medium was removed from the agarose layer. HeLa cells (10,000 cells) in 200 μL of DMEM containing 2% matrigel were added into each well and incubated for 3-4 days to allow the formation of spheroids. Matrigel was dissolved on ice overnight and added in ice cold DMEM at a concentration of 2.5% (to obtain a final concentration of 2% once added to the wells). Then the mixture was heated to 37° C. before being combined with the cells. Tumor spheroids were incubated in 50 μL of PBS buffer, pH 6.3 containing 0-2 μM Rha-pHLIP® or Rha-PEG12-pHLIP® in a humidified atmosphere of 5% CO2 at 37° C. for 30 min. After treatment, the spheroids were washed several times in 1 mL of PBS. […]

Test [2] deals with B16-F10 melanoma murine cancer cells (flank tumor). Nature of the test: B16-F10 melanoma tumor weight in tri-Gal-immunized A3galt2-knockout mice after IP treatment. Format: in vivo. The note with it: B16-F10 flank tumors, IP injections 450 μl of 80 μM for 10 consecutive days (total 60 mg/kg), versus non-treated control group. The text has this: Mice deficient in α1-3 gylactosyltransferase 2 (A3galt2) on 129/SvEv-[…] background heterozygous breeding pairs was obtained from Taconic Biosciences. The knockout mouse model is described in the article entitled “Normal development and function of invariant natural killer T cells in mice with isoglobotrihexosylceramide (iGb3) deficiency” by Porubsky et al. PNAS 2007 Apr. 3; 104(14): 5977-5982, incorporated herein by reference in its entirety.
All animal studies with the Gal-pHLIP® construct were conducted according to the animal protocol AN1920-003 approved by the Institutional Animal Care and Use Committee at the University of Rhode Island, in compliance with the principles and procedures outlined by the National Institutes of Health for the care and use of animals. Homo- and heterozygous A3galt2-knockout female and male mice on 129/SvEv-C57BL/6J background were used in the study.
First, immunization of mice was performed to develop antibodies against tri-Gal epitope. Briefly, at day 1 mice were immunized with Galα1-3Galβ1-4Glc-HSA (HSA: human serum albumin) from Dextra Laboratories, 20 μg/mouse emulsified in complete Freund's adjuvant. Booster injections of Galα1-3Galβ1-4Glc-HSA emulsified in incomplete Freund's adjuvant were administered at days 13, 20 and 27. […]

Primed or numbered codes have the meaning given here. Where no end group is shown, it is not given here. Side-chain parts run from the residue outwards. maleimide = maleimide group (rhamnose-PEG12-maleimide) coupled to the N-terminal Cys of the peptide; PEG12′ = polyethylene glycol spacer of 12 units; Rha = rhamnose

For “AS(Rha)DDQNPWRAYLDLLFPTDTLLLDLLWA [Rha-pHLIP®]”, in test [1], the “binding of lectin-Cy3 (fluorescence) to tumor spheroids” value is “much stronger binding of lectin-Cy3”.

With “Rha-PEG12-pHLIP®: Rhamnose-PEG12-malemide coupled with single Cys at N-terminal end of pHLIP® ACDDQNPWRAYLDLLFPTDTLLLDLLWA (SEQ ID NO: 469) (AC([maleimide-PEG12′-Rha])DDQNPWRAYLDLLFPTDTLLLDLLWA)”, in test [1], the “binding of lectin-Cy3 (fluorescence) to tumor spheroids” value is recorded as “much stronger binding of lectin-Cy3”.

As to “tri-Gal-PEG4-pHLIP®: tri-Gal-PEG4 (Galα(1,3)Galβ(1,4)Glc-PEG4) coupled with pHLIP® ACDDQNPWRAYLDLLFPTDTLLLDLLWA (SEQ ID NO: 469) (not fully specified (residue 2); also: tri-Gal-PEG4 (Galα(1,3)Galβ(1,4)Glc-PEG4) coupled, site not given here)”, the tumor weight reduction entry in test [2] is “About 65%”.

For the origin of these results see patent publication US11267853B2, “Carbohydrate tethering at cell surfaces to induce immune response” (University of Rhode Island Board of Trustees, priority 2019, dated 2022).
